In patent US10166229B2, “Compounds and methods for the treatment of cancer” (The Board of Trustees of the University of Illinois, priority 2005, dated 2019):
“Also recorded” adds a separate entry of the source. Read-outs that look alike come from different tables or passages of the source.

Columns and labels:
procaspase-3 [1] = biological target: T1, procaspase-3 (Homo sapiens (Human), UniProt P42574); assay: In vitro activation of purified procaspase-3 (activation curves, Ac-DEVD-pNA); type: biochemical; settings: for EC50: read-out: EC50 for activation of procaspase-3
Description: Activation curves. […] The plate was read every 2 minutes at 405 nm for 2 hours in a Spectra Max Plus 384 well plate reader. The slope of the linear portion for each well was determined and the fold increase in activation from non-treated control wells was calculated. […]

procaspase-3 mutant DAD = procaspase-3 mutant DAD (Homo sapiens, UniProt P42574, D180A); assay: Activation of safety catch mutant procaspase-3 (DAD); type: biochemical; settings: Asp-Ala-Asp mutant
From the text: (§1) Safety catch mutations. The DDD procaspase-3 safety catch (SEQ ID NO:1; SEQ ID NO:2; SEQ ID NO:9) was mutated to ADD (SEQ ID NO:3, SEQ ID NO:4, SEQ ID NO:10), DAD (SEQ ID NO:5, SEQ ID NO:6, SEQ ID NO:11) and DDA (SEQ ID NO:7, SEQ ID NO:8, SEQ ID NO:12) using the quickchange strategy with the following primers, gacagacagtggtgttgCGgatgacatggcgtgtcataaaatacc (SEQ ID NO:13), gacagacagtggtgttgatgCtgacatggcgtgtcataaaatacc (SEQ ID NO:14) and gacagacagtggtgttgatgatgCcatggcgtgtcataaaatacc (SEQ ID NO:15) respectively. See also FIG. 9 and FIG. 10. Mutated bases are underlined and capitalized. All mutant plasmids were sequenced to ensure proper sequence throughout the gene. All mutant plasm ids were expressed exactly as wild-type procaspase-3 as described above. […] The plate was then incubated for 12 hours at 37° C. 10 μL of a 2 mM solution of Ac-DEVD-pNA (SEQ ID NO: 28) in caspase assay buffer was then added to each well. The plate was read every 2 minutes at 405 nm for 2 hours in a Spectra Max Plus 384 well plate reader. The slope of the linear portion for each well was determined and the fold increase in activity for each mutant was calculated.

procaspase-3 mutant ADD = assay: Activation of safety catch mutant procaspase-3 (ADD); type: biochemical, Homo sapiens
From the text: as §1

procaspase-3 [2] = biological target: T1, procaspase-3; assay: PAC-1 activation gel (Western blot of procaspase-3 cleavage); type: biochemical
Description: Procaspase-3 was expressed and isolated exactly as above. Procaspase-3 was diluted to about 50 μg/mL in caspase assay buffer. […] After this incubation, an equal volume of load buffer (150 mM NaCl, 50 mM Tris, 2% SDS, 20% glycerol, pH 8.0) was added to each procaspase-3 sample. All samples were then stored at −80° C. until the time-course was completed. All samples were then incubated at 95° C. for 5 minutes and run on a 12% SDS-PAGE gel. Proteins were then transferred to nitrocellulose paper overnight. Blots were washed in TTBS (150 mM NaCl, 50 mM Tris, 0.1% Tween-20, pH 7.4) and blocked with a 10% milk solution for 2 hours. Blots were then incubated in a 1:5000 dilution of anti-Penta His Alexa Fluor 647 antibody for 2 hours. The blot was then washed with TTBS and scanned on a Typhoon fluorescence scanner (Amersham Biosciences, Sunnyvale Calif.).

procaspase-3 [3] = biological target: T1, procaspase-3; assay: Effect of pH on PAC-1 activation of procaspase-3; type: biochemical; settings: low pH values
Description: The plate was then incubated for 12 hours at 37° C. 10 μL of a 2 mM solution of Ac-DEVD-pNA (SEQ ID NO: 28) in caspase assay buffer was then added to each well. […] The slope of the linear portion for each well was determined and the fold increase in activation for each pH value was calculated.

[4] = system: NCI-H226 lung cancer cell line; assay: Cell death IC50 (MTS) in NCI-H226; type: cell-based; settings: Homo sapiens, NCI-H226, 72 h, read-out: IC50 for cell death induction, NCI-H226
[5] = system: white blood cells derived from the bone marrow of a healthy human donor; assay: Cell death in normal white blood cells; type: cell-based; settings: relative to cancer cell lines
[6] = system: white blood cells from bone marrow, Hs888Lu, MCF-10A, Hs578Bst; assay: Cell death in four non-cancerous cell types; type: cell-based
HL-60 cells [7] = assay: Condensed chromatin staining (Hoechst); type: cell-based, human; settings: HL-60, 20 h, 100 μM
Description: The cells were then washed in PBS buffer followed by the addition of ice-cold 100% ethanol. The cells were fixed overnight at 4° C. Fixed cells were incubated with 2 μg/mL Hoechst-33258 for 30 minutes at room temperature. A drop of cells was then added to a microscope slide and covered with a No. 1 thickness coverslip.

HL-60 cells [8] = assay: Cell death inhibition by z-vad-fmk; type: cell-based, human
Description: Cell death inhibition by z-vad-fmk. 100 μL HL-60 cells at a concentration of 5×10^5 cells/mL were added to the wells of a 96-well plate. The cells were then incubated for 1 hour in the presence or absence of 100 μM z-vad-fmk, a cell-permeable pan caspase inhibitor. […] The plates were incubated at 37° C. for approximately 45 minutes until the colored product formed.

PARP-1 = PARP-1 (Homo sapiens (Human), UniProt P09874); assay: Control experiment: direct inhibition of PARP-1 enzymatic activity; type: biochemical; settings: control experiments
[9] = system: mitochondrial membrane depolarization in HL-60 cells; assay: Mitochondrial membrane potential (JC-9) in HL-60; type: cell-based, human
Description: The cells were incubated for various times, and the cells then were harvested by centrifugation. The cells were washed in PBS and resuspended in 1 mL of PBS. 10 μg of the JC-9 dye was added and the cells were incubated at room temperature for 10 minutes protected from light. The cells were then washed two times with PBS and brought up in 500 μL PBS. The fluorescent intensity of each cell was determined by flow cytometry at 525 nm (green channel) and 675 nm (red channel). 50,000 cells were analyzed in each experiment. The shift in the red channel was then used to determine the amount of mitochondrial membrane depolarization.

[10] = system: ACHN (renal cancer) subcutaneous tumors; assay: ACHN xenograft, PAC-1/cholesterol pellet; type: in vivo, mice
procaspase-7 = procaspase-7 (Homo sapiens (Human), UniProt P55210); settings: read-out: EC50 for activation of procaspase-7
[11] = system: MCF-7, breast cancer cells; assay: Cell death IC50 in MCF-7; settings: Homo sapiens, MCF7, read-out: IC50 for death induction, MCF-7
Description: Determination of IC50 values in various cell lines. 50 μL of media containing various concentrations of PAC-1 or etoposide was added to each well of a 96-well plate except control wells, which contained only DMSO. […] The plates were then incubated at 37° C. for approximately one hour until the colored product formed.

T1 sequence (P42574 whole entry): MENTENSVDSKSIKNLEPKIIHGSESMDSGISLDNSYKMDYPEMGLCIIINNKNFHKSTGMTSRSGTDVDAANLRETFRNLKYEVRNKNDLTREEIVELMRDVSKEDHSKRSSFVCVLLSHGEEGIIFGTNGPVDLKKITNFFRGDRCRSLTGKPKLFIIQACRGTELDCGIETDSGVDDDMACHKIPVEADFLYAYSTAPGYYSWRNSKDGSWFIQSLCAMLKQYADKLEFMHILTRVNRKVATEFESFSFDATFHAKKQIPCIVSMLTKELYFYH
procaspase-7, sequence (P55210 whole entry): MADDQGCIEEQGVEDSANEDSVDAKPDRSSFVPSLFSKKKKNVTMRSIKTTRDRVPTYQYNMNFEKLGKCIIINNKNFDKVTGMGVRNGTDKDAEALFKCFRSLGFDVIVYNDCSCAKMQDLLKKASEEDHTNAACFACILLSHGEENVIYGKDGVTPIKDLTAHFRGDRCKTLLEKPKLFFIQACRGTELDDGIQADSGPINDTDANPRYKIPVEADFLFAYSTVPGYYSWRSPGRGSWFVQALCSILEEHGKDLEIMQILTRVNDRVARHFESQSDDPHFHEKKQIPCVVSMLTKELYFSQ
procaspase-3 mutant DAD, sequence (P42574 29-175 limits assumed): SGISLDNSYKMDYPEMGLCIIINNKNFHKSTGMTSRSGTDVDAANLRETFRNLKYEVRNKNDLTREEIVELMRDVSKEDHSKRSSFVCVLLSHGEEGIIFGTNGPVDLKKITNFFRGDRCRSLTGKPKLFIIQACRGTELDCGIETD
procaspase-3 mutant DAD, sequence (P42574 176-277 D180A limits assumed): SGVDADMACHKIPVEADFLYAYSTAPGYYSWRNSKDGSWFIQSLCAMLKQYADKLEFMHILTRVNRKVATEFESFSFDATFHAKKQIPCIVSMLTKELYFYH
PARP-1, sequence (P09874 whole entry, species assumed): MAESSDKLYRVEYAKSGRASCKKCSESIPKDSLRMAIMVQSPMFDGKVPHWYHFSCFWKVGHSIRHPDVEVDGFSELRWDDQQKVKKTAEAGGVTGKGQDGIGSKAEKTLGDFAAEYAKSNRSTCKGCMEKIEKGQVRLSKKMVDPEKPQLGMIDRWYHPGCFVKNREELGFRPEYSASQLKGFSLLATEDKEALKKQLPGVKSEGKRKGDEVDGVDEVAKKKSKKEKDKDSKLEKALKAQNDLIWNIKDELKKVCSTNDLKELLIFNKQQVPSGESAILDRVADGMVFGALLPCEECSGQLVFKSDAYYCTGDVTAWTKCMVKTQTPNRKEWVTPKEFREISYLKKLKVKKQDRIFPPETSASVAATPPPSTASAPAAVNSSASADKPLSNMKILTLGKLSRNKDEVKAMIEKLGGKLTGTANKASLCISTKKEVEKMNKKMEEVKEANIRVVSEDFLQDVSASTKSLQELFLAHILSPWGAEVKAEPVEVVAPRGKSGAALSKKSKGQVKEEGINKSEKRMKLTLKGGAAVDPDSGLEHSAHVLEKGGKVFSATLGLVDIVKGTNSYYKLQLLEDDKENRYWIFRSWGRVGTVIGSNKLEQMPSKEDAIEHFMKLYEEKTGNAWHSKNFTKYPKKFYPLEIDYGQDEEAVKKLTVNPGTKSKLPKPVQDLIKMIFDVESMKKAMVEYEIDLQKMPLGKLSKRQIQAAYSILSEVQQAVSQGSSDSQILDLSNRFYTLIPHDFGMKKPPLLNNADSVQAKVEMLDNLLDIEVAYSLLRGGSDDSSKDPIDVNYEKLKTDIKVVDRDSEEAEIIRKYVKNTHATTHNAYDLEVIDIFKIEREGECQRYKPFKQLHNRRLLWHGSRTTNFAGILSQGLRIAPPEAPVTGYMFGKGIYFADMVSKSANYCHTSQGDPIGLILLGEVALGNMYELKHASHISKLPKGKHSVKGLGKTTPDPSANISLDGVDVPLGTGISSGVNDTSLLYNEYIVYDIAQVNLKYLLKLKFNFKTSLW

C=CCc1cccc(/C=N/NC(=O)CN2CCN(Cc3ccccc3)CC2)c1O [PAC-1]
procaspase-3 activation in vitro (in words) (procaspase-3 [1]): activate procaspase-3 in vitro
Activity (direct activation of purified procaspase-3 in vitro) (procaspase-3 [1]; Table 2): Active
EC50 (procaspase-3 [1]; in vitro): ~220 nM
EC50 (procaspase-3 [1]; wild type procaspase-3 (DDD)): 220 nM
EC50 (procaspase-3 mutant DAD): 2770 nM
EC50 (procaspase-3 mutant ADD): 131000 nM
effectiveness in procaspase-3 cleavage assay (procaspase-3 [2]; 5 μM): effective
time to cleavage generating the p19 fragment (procaspase-3 [2]; 100 μM PAC-1): ≤ 1 h
cleavage (processing) of procaspase-3 (procaspase-3 [2]; 100 μM PAC-1, after 4 hours): > 50%
effect of PAC-1 on procaspase-3 at low pH (procaspase-3 [3]): abolished
IC50 [4]: 350 nM
potency/toxicity in normal white blood cells [5]: comparatively less toxic; also recorded: markedly less potent
IC50 [6]: 3200 to 8500 nM
chromatin condensation (HL-60 cells [7]): significant chromatin condensation
toxicity in the presence of caspase inhibitor z-VAD-fmk (HL-60 cells [8]): abolished
direct inhibition of enzymatic activity of PARP-1 (PARP-1): does not directly inhibit
mitochondrial membrane depolarization [9]: causes mitochondrial membrane depolarization
food consumption ([10]; last week of the experiment, 0, 1, 5 mg pellets): no difference in food consumption
tumor growth, ACHN xenograft ([10]; pellet containing 5 mg of PAC-1, about 8 weeks): significantly retarded; also recorded: reduces the growth of tumors
EC50 (procaspase-7): 4500 nM
IC50 [11]: > 75000 nM
